ChEMBL document CHEMBL1158716, “Sesquiterpenoids and plasmin-inhibitory flavonoids from Blumea balsamifera” (J Nat Prod, 2005)

Tests used:
[1] = target: Plasminogen (Homo sapiens, UniProt P00747); experiment: Inhibition of plasmin
[2] = tested on: Jurkat; experiment: Cytotoxicity against human Jurkat cells; type: functional, cell-based

Chain of Plasminogen (P00747 97-580 limits assumed): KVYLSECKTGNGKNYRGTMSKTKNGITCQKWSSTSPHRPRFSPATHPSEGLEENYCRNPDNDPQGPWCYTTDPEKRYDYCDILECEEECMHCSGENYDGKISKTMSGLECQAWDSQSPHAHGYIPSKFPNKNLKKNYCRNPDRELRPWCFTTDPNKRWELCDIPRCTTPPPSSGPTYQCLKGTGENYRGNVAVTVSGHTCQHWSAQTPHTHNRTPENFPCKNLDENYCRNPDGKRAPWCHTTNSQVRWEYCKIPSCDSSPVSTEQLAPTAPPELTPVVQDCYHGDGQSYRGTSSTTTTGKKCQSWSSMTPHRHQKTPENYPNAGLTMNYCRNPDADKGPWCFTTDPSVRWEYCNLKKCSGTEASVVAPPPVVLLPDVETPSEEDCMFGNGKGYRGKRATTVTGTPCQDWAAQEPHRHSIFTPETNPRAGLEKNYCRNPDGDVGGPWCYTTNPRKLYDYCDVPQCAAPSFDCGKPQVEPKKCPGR
Chain of Plasminogen (P00747 581-810 limits assumed): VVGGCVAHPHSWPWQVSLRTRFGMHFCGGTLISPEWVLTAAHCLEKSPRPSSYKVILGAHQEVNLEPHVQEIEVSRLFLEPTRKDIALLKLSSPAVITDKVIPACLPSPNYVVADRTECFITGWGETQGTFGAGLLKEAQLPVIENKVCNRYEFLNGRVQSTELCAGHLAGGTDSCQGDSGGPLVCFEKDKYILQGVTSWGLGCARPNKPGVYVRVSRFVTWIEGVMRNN

Compound | IC50 [1] | IC50 [2]
C/C1=C\C(=O)[C@@H](C(C)C)C[C@@H](OC(=O)[C@]2(C)O[C@@H]2C)[C@](C)(O)C(=O)CC1 |  | 26200 nM
C=C1CC[C@@]2(O)[C@H]1C(=O)[C@@H](C(C)C)C[C@@H](OC(=O)/C(C)=C\C)[C@]2(C)O |  | > 70000 nM

More lines, main results first:

IC50 [1] | Compound | IC50 [2]
1500 nM | COc1cc(O)c2c(=O)c(OC)c(-c3ccc(O)c(O)c3)oc2c1 | 
2300 nM | COc1cc(O)c2c(=O)cc(-c3ccc(O)c(O)c3)oc2c1 | 
1200 nM | CC(=O)N[C@@H](CC(C)C)C(=O)N[C@@H](CC(C)C)C(=O)N[C@H](C=O)CCCNC(=N)N [LEUPEPTIN] | 
